Patent US20220293224A1, “MODULAR SYNTHON-BASED SCREENING APPROACH FOR USE IN DRUG DISCOVERY FOR DISEASES” (priority 2021, published 2022)
Like-named read-outs stand apart in the source and are kept apart here.

What was measured:
human CB1 = molecular target: T1, human CB1 (Homo sapiens, UniProt P21554); assay type: cell-based; conditions: read-out: CB1 Antagonist potency Ki
T1 construct: expressed in transfected cells; host or cells: HTLA cells
Experimental: (§1) The Tango arrestin recruitment assays were performed as previously described. Briefly, HTLA cells were transiently transfected with human CB1 or CB2 Tango DNA construct overnight in DMEM supplemented with 10% FBS, 100 μg/ml streptomycin and 100 U/ml penicillin. The transfected cells were then plated into Poly-L-Lysine coated 384-well white clear bottom cell culture plates in DMEM containing 1% dialyzed FBS at a density of 10,000-15,000 cells/well. After 6 hours incubation, the plates were added with drug solutions prepared in DMEM containing 1% dialyzed FBS for overnight incubation. […] On the day of assay, medium and drug solutions were removed and 20 μL/well of BrightGlo reagent (Promega) was added. The plates were further incubated for 20 min at room temperature and counted using a Wallac TriLux Microbeta counter (PerkinElmer). Results were analyzed using GraphPad Prism 8.

human CB2 [1] = molecular target: T2, human CB2 (Homo sapiens, UniProt P34972); test: Radioligand binding assay with [3H]CP-55,940, HEK293 cells expressing hCB2; set-up: expressed in transfected cells; host or cells: HEK293 cells
T2 sequence (P34972 whole entry): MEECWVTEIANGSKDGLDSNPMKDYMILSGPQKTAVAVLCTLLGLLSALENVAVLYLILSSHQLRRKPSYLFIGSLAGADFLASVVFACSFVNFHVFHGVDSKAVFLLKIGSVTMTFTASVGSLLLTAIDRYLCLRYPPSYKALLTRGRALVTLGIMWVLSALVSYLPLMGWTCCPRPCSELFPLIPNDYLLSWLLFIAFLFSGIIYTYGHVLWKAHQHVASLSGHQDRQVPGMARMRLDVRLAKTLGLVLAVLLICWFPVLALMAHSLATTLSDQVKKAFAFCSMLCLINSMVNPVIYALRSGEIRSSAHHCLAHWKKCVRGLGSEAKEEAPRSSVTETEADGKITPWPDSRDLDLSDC
Experimental: (§2) The affinities (IQ of the new compounds for rat CB1 receptor as well as for human CB2 receptors were obtained by using membrane preparations from rat brain or HEK293 cells expressing hCB2 receptors, respectively, and [^3H]CP-55,940 as the radioligand, as previously described. Results from the competition assays were analyzed using nonlinear regression to determine the IC50 values for the ligand; Ki values were calculated from the I50 (Prism by GraphPad Software, Inc.). Each experiment was performed in triplicate and Ki values determined from three independent experiments and are expressed as the mean of the three values.

rat CB1 receptor = molecular target: T3, rat CB1 receptor (Rattus norvegicus, UniProt P20272); test: Radioligand binding assay with [3H]CP-55,940, rat brain membranes
T3 construct: membrane preparations from rat brain; from tissue; host or cells: rat brain membranes
T3 sequence (P20272 whole entry): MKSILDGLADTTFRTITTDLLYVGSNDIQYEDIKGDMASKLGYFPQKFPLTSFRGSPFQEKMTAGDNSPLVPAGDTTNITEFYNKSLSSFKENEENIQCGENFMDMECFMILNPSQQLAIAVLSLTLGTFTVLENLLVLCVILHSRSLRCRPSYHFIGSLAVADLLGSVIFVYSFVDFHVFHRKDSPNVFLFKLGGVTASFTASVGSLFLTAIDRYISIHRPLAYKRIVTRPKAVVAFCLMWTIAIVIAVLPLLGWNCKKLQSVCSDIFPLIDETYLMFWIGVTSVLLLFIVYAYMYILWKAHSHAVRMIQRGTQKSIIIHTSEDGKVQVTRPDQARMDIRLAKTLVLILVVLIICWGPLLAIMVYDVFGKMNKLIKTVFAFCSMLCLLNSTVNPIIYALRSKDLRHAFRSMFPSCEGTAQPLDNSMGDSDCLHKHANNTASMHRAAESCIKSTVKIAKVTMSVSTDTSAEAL
Experimental: as §2

human CB2 [2] = molecular target: T2, human CB2; test: Tango β-arrestin recruitment antagonist assay at CB2; assay type: cell-based; set-up: expressed in transfected cells; host or cells: HTLA cells; conditions: Tango antagonist assay with 100 nM CP55940; n=4 independent assays, 16 dose-response points; read-out: CB2 Antagonist potency Ki
Experimental: as §1

[3] = system: panel of more than 300 receptors; test: PRESTO-Tango GPCRome off-target panel; assay type: cell-based; conditions: for activities at off-targets in follow-up dose-response curves: follow-up dose-response of potential actives
Experimental: Screening of the compounds in the PRESTO-Tango GPCRome was performed as previously described with modifications. First, HTLA cells were plated in poly-L-lysine coated 384-well white plates in DMEM containing 1% dialyzed FBS for 6 hours. Next, the cells were transfected with 20 ng/well PRESTO-Tango receptor DNAs overnight. Then, the cells were added with 10 μM drugs without changing the medium and incubated for another 24 hours. The remaining steps of the PRESTO-Tango protocol were followed. The results were plotted as fold of basal against individual receptors in the GraphPad 8.0 software. For the receptors that had >3-fold of basal signaling activity, assays were repeated as a full dose-response assay and the results were plotted as a percentage of reference compounds.

[4] = human CB2, [3H]CP-55,940 radioligand, read-out: CB2 affinity Ki
[5] = rat CB1, [3H]CP-55,940, estimates from 3-point assays, read-out: CB1 affinity Ki (asterisk: estimate from 3-point assays)
[6] = rat CB1, [3H]CP-55,940 radioligand, read-out: CB1 affinity Ki
[7] = human CB2, [3H]CP-55,940, estimates from 3-point assays, read-out: CB2 affinity Ki (asterisk: estimate from 3-point assays)

T1 sequence (P21554 whole entry): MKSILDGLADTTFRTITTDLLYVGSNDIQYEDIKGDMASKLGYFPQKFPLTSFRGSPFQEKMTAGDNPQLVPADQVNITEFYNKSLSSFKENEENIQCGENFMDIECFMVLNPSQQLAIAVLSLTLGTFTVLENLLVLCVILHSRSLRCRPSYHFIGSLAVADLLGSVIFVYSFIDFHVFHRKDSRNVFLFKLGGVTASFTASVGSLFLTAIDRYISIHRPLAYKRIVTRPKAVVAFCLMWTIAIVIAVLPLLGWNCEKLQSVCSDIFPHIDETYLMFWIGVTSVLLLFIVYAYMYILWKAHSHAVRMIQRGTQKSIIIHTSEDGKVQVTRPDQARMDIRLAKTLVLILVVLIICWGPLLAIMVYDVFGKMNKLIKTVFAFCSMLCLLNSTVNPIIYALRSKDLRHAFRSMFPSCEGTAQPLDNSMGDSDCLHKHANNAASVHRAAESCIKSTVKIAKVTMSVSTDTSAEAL

SMILES	Ki (human CB1)	Ki (human CB2 [1]; [4])	Ki (rat CB1 receptor; [5])	Ki (human CB2 [2])	Ki (rat CB1 receptor; [6])	activities at off-targets in follow-up dose-response curves [3]	selectivity against the GPCRome-Tango panel ([3]; panel of more than 300 receptors)	Ki (human CB2 [1]; [7])
Cc1ccc(NC(=O)N2CCC(O)(c3ccccc3F)C2)cc1S(=O)(=O)N1CCCCCC1 (stereo not drawn) [BRI-13599]	2330 nM	10.4 µM	26.5 µM	2.44 µM	–	–	–	–
C=CCC1(S(=O)(=O)NC(=O)c2ccc(N3CCCCC3)c(S(=O)(=O)N3CCCCCC3)c2)CC1 [BRI-13523]	1820 nM	0.85 µM	–	1.59 µM	12 µM	only negligible activities	high selectivity	–
Cc1ccc(NC(=O)Nc2ccn(C3CCCCCC3)n2)cc1S(=O)(=O)N1CCCCCC1 [BRI-13544]	–	–	–	7.78 µM	–	–	–	2.5 µM
Cc1ccc(NC(=O)Nc2ccn(C3CCOCC3)n2)cc1S(=O)(=O)N1CCCCCC1 [BRI-13505]	280 nM	–	–	0.54 µM	16.4 µM	–	–	1 µM
CCCC(NS(=O)(=O)C1CC2(CC2)C1)C(=O)Nc1cccc(N2CCCC2)c1 (stereo not drawn) [BRI-13681]	420 nM	4.2 µM	–	1.86 µM	8.2 µM	–	–	–
COc1ccc(-c2nccc(N3CCCC(Cc4ccc(N)nc4)C3)n2)cc1 (stereo not drawn) [BRI-13565]	–	13.6 µM	4.5 µM	3.77 µM	–	–	–	–
CC1(C)NC(=O)N(CCCNC(=O)NCc2oc3ccc(Cl)cc3c2-c2ccccc2)C1=O [BRI-13559]	980 nM	12.2 µM	–	4.25 µM	–	–	–	–
Cc1ccc(CN(Cc2ccco2)S(=O)(=O)c2cnn(-c3ccccc3F)c2)s1 [BRI-13668]	–	5.2 µM	–	4.78 µM	–	–	–	–
O=C1Cc2cc(NC(=O)C(=O)NC(CCc3ccccc3)c3ccccc3)ccc2N1 (stereo not drawn) [BRI-13515]	940 nM	2.85 µM	–	3.81 µM	6.1 µM	–	–	–
O=C(C1CC1)N1CCc2ccc(S(=O)(=O)NC(CCc3ccccc3)c3ccccn3)cc21 (stereo not drawn) [BRI-13663]	–	14.3 µM	12.5 µM	14.5 µM	–	–	–	–
O=C(Nc1ccn(C2CCCCC2)n1)C(=O)NC(CCc1ccccc1)c1ccccc1 (stereo not drawn) [BRI-13610]	760 nM	0.28 µM	–	4.17 µM	0.62 µM	only negligible activities	–	–
Cc1cc(Cl)cn2cc(CNC(=O)C(=O)NC(COc3ccccc3)c3ccccc3)nc12 (stereo not drawn) [BRI-13520]	1070 nM	12.8 µM	–	5.2 µM	11.6 µM	–	–	–
CS(C)(=O)=NS(=O)(=O)c1cccc(C(=O)OCc2cccc3ccsc23)c1 [BRI-13650]	3220 nM	–	45 µM	12.2 µM	–	–	–	–
O=C(NCC1(Cc2ccccc2)CC=CCC1)C(=O)Nc1c(F)ccc(Br)c1F (stereo not drawn) [BRI-13566]	2050 nM	1.2 µM	6.9 µM	4.04 µM	–	–	–	–
O=C1CCc2cc(OCCNC(=O)N(Cc3ccccc3)Cc3ccc(F)cc3)ccc2N1 [BRI-13619]	50 nM	–	45 µM	0.11 µM	–	–	–	–
O=C(c1ccc(F)cc1)c1cc(Cl)ccc1NS(=O)(=O)c1cnn(C2CCCCC2)c1 [BRI-13665]	390 nM	6.7 µM	> 7 µM	0.82 µM	–	–	–	–
O=S(=O)(C1=Cc2cc(Cl)ccc2OC1)N(CCc1ccccn1)Cc1cccnc1 [BRI-13684]	1160 nM	5.3 µM	–	7.28 µM	25.5 µM	–	–	–
O=S(=O)(NC1CC1)c1ccc(S(=O)(=O)NC(CCc2ccccc2)c2ccccn2)cc1 (stereo not drawn) [BRI-13661]	550 nM	4 µM	19 µM	4.37 µM	–	–	–	–
Cn1ccc(-n2cc(-c3csc(C(NC(=O)c4ccccc4)c4ccccc4)n3)nn2)n1 (stereo not drawn) [BRI-13580]	5800 nM	–	–	6.92 µM	–	–	–	1.5 µM
N#Cc1ccc(C(=O)NCCN(Cc2ccccc2)C(=O)c2cc(C(F)(F)F)cs2)s1 [BRI-13633]	230 nM	–	10 µM	1.53 µM	–	–	–	–
